US9481700B2, “Method for preparing isofagomine and its derivatives” (Amicus Therapeutics, Inc., priority 2007, dated 2016)
Structures can show the parent of a compound that is named as a salt.

Key:
GCase [1] = experiment: Mouse model of Gaucher disease expressing mutations in the Gba gene; details: in vivo, unpublished data
Excerpt: (§1) In the absence of the “pharmacological chaperone,” the mutated enzyme protein misfolds in the ER (Ishii et al., Biochem. Biophys. Res. Comm. 1996; 220: 812-815), is retarded in its maturation to a final product, and is subsequently degraded by the ER-associated degradation mechanism. Homozygous mutant GCase is associated with the lysosomal storage disease Gaucher disease.

mutant GCase = details: in vitro, fibroblasts from Gaucher patients; cited from earlier work
human GCase = target: T1, human GCase (Homo sapiens, UniProt P04062); experiment: Phase 1 clinical trials, GCase activity in healthy volunteers; assay type: in vivo
T1 construct: human GCase in healthy volunteers; endogenous in cells
T1 sequence (P04062 40-536): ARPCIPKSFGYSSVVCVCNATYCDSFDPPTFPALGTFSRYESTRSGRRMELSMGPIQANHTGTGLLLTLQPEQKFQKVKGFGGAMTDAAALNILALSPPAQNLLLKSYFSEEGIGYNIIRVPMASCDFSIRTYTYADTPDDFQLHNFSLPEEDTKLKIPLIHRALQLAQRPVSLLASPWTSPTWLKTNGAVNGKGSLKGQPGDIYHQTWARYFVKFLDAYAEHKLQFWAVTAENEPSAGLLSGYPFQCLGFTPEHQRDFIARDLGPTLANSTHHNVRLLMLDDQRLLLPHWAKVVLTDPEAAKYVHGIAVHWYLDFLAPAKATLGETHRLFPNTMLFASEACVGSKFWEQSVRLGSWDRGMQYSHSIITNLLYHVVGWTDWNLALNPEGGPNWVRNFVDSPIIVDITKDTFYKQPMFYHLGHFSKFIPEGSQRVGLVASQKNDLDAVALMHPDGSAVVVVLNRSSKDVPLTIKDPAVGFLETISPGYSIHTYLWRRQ
Excerpt: as §1

GCase [2] = experiment: Phase 2 clinical trials, GCase activity in Gaucher patients expressing certain missense mutations; assay type: in vivo, human; details: Gaucher patients expressing certain missense mutations that create misfolded GCase
Excerpt: as §1

Row | increase of the activity of human GCase (human GCase) | GCase activity (GCase [2]) | Structure (SMILES) | GCase activity (GCase [1]) | phenotype (GCase [1]) | activity of mutant GCase (mutant GCase)
1 | – | – | OC[C@H]1CNC[C@@H](O)[C@@H]1O [IFG, (3R,4R,5R)-3,4-dihydroxy-5-hydroxymethyl-piperidine] | increases GCase activity | improves the phenotype | increase the activity of mutant GCase
2 | up to 3.5 fold | increase in GCase activity | OC[C@H]1CNC[C@@H](O)[C@@H]1O [IFG tartrate] | – | – | –
